Test results from patent US9107415B2, “2-(substituted-phenyl)-cyclopentane-1,3-dione compounds, and derivatives thereof” (Syngenta Limited, priority 2011, dated 2015).

How the values were obtained:
Lolium perenne (LOLPE) = test: Biological Example 1 glasshouse screen, pre-emergence herbicidal activity; format: in vivo; conditions: 312 h, application rate 250 g/ha, evaluated after 13 days, read-out: LOLPE percentage phytotoxicity
Outline: (§1)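 Pots in a glasshouse (24/16°C day/night, 14 h light, 65% humidity) were sprayed one day after sowing (pre-emergence) or after 8 days (post-emergence), using acetone/water (50:50) with 0.5% Tween 20. Phytotoxicity was scored visually as % damage (0-100) 13 days after application.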

Avena fatua (AVEFA) = test: as above; format: in vivo; conditions: 312 h, application rate 250 g/ha, evaluated after 13 days, read-out: AVEFA percentage phytotoxicity
Outline: as §1

[1] = test system: Spring Barley “Harrington”; test: Biological Example 4B post-emergence phytotoxicity on cereal crops; format: in vivo; conditions: 14 DAA, technical compound in IF50 + Adigor, mean of two
Protocol: (§2) Seeds of a variety of test species are sown in standard soil in pots. After cultivation for 14 days under controlled conditions in a glasshouse (at 22/16°C., day/night; 16 hours light; 65% humidity), the plants are sprayed with an aqueous spray solution derived from the formulation of the technical active ingredient dissolved in acetone plus IF50 containing
(§3) 10.56 wt % Emulsogen™EL (castor oil ethoxylate, CAS Registry number 61791-12-6)
(§4) 42.22 wt % N-Methyl pyrrolidone
(§5) 42.22 wt % dipropylene glycol monoethyl ether
(§6) at a 1:20 ratio of (technical active ingredient:IF50). The adjuvant Adigor™(an adjuvant containing inter alia methylated rapeseed oil, e.g. available from Syngenta) is added to form a 0.5% v/v solution. The test plants are then grown on under controlled conditions in the glasshouse (at 22/16°C., day/night; 16 hours light; 65% humidity) and are watered twice daily. After 14 days the test is evaluated (100%=total damage to plant; 0%=no damage to plant).
(§7) Post-emergence herbicidal activity (phytotoxicity) data, on certain grassy monocotyledonous weeds and cereal crops in a glasshouse, are measured 14 days after application of the herbicide (14 DAA), for (a) a post-emergence application rate of 60 g/ha of the test herbicide with or without 50 g/ha of cloquintocet-mexyl safener applied at substantially the same time as the herbicide, and (b) for a post-emergence application rate of 30 g/ha of the test herbicide with 50 g/ha of cloquintocet-mexyl safener applied at substantially the same time as the herbicide. Herbicidal activity (phytotoxicity) is evaluated visually, and an assessed percentage phytotoxicity score is given for each herbicidal application on each plant species (with 100%=total damage to plant; 0%=no damage to plant). Two repetitions are made for each experiment, and the mean herbicidal activity (phytotoxicity) data is reported.

Spring Wheat “Teal” = test: as above; format: in vivo; conditions: 14 DAA, technical compound in IF50 + Adigor, mean of two
Protocol: as §2, §3, §4, §5, §6
as §7, with “post-emergence application rate of 60 g/ha of the test herbicide with or without 50 g/ha of cloquintocet-mexyl safener applied at substantially” left out

[2] = Biological Example 5B “RASP” soil persistence method; conditions: 18 Acres soil
Protocol: Field soil (of the type “18 Acres”, as described in Biological Example 5A and Table 5.1 above) is sieved to 2 mm. The sieved soil is wetted up with distilled water, mixing thoroughly until it reaches “field capacity”. […] Usually, the moisture content of the soil used is about 25%.
For each compound tested, 6×50 mL polypropylene centrifuge tubes containing 10 g±0.5 g of soil at field capacity are used. Each tube lid has a 2 mm hole to allow for air circulation during the incubation period.
4×10 microliters of treatment solutions of the compounds to be tested are applied to the surface of the soil in groups of 6 tubes. 4×10 microliter drops are also dispensed into the treatment check vials and these are diluted to 1 mL with acetonitrile; at this point additional samples can be prepared for HPLC method development if required.
Two of the tubes containing the treated soil are capped and immediately frozen as T0 (day zero) samples. The remaining four samples are capped with lids containing a 2 mm hole drilled into the lid and incubated in controlled environment cabinets for the correct time interval at 20°C., 80% relative humidity.
After both one and four weeks incubation, two tubes from each treatment are removed from the cabinets, the lids are replaced for ones lacking ventilation holes and the tubes are frozen. When the samples are ready for analysis, a zero time, 1 week and 4 week sample for each compound is removed from the freezer and allowed to thaw. Immediately after thawing, 40 mL of extraction solution is added to the samples.
Samples are extracted using a mixture such as 80:20 (v/v) acetonitrile/1 M ammonium hydroxide solution. […]
All samples from the test are analysed by UPLC-MS. […]
For each compound, the molecular ion giving the best sensitivity is chosen and a single ion monitoring method is set up. The method development samples are re-analysed using the selected ion monitoring methods to check that suitable sensitivity is obtained.
Degradation kinetics, and an estimated half-life (T½) of the compound in the soil, can then be calculated using simple first order assumptions.

[3] = test system: Spring Barley “Harrington”; test: Biological Example 4B post-emergence phytotoxicity on cereal crops; format: in vivo; conditions: 15 g/ha, cloquintocet-mexyl 50 g/ha, 14 DAA, technical compound in IF50 + Adigor, mean of two
[4] = 30 g/ha, cloquintocet-mexyl 50 g/ha
[5] = 60 g/ha, cloquintocet-mexyl 0 g/ha
[6] = 60 g/ha, cloquintocet-mexyl 50 g/ha

CC#Cc1cc(C)c(C2=C(O)CC(Cc3ccc(C)cn3)C2=O)c(C)c1 (stereo not shown) [Compound A-8]
pest or weed control at 250 g/ha (Lolium perenne (LOLPE)): 100% | pest or weed control at 250 g/ha (Avena fatua (AVEFA)): 100% | Spring Barley “Harrington” phytotoxicity (%) [1, 4]: 18% | Spring Barley “Harrington” phytotoxicity (%) [1, 5]: 85% | Spring Barley “Harrington” phytotoxicity (%) [1, 6]: 75% | Spring Wheat “Teal” phytotoxicity (%) (Spring Wheat “Teal”; [4]): 0% | Spring Wheat “Teal” phytotoxicity (%) (Spring Wheat “Teal”; [5]): 73% | Spring Wheat “Teal” phytotoxicity (%) (Spring Wheat “Teal”; [6]): 25%

CC#Cc1cc(C)c(C2=C(O)CC(Cc3ccc(F)cn3)C2=O)c(C)c1 (stereo not shown) [Compound A-11]
pest or weed control at 250 g/ha (Lolium perenne (LOLPE)): 100% | pest or weed control at 250 g/ha (Avena fatua (AVEFA)): 70% | Spring Barley “Harrington” phytotoxicity (%) [1, 4]: 8% | Spring Barley “Harrington” phytotoxicity (%) [1, 5]: 58% | Spring Barley “Harrington” phytotoxicity (%) [1, 6]: 13% | Spring Wheat “Teal” phytotoxicity (%) (Spring Wheat “Teal”; [4]): 8% | Spring Wheat “Teal” phytotoxicity (%) (Spring Wheat “Teal”; [5]): 38% | Spring Wheat “Teal” phytotoxicity (%) (Spring Wheat “Teal”; [6]): 15%

CC#Cc1cc(C)c(C2=C(O)CC(Cc3ccc(C#N)cn3)C2=O)c(C)c1 (stereo not shown) [Compound A-14]
pest or weed control at 250 g/ha (Lolium perenne (LOLPE)): 90% | pest or weed control at 250 g/ha (Avena fatua (AVEFA)): 50% | Spring Barley “Harrington” phytotoxicity (%) [1, 4]: 70% | Spring Barley “Harrington” phytotoxicity (%) [1, 5]: 95% | Spring Barley “Harrington” phytotoxicity (%) [1, 6]: 95% | Spring Wheat “Teal” phytotoxicity (%) (Spring Wheat “Teal”; [4]): 13% | Spring Wheat “Teal” phytotoxicity (%) (Spring Wheat “Teal”; [5]): 83% | Spring Wheat “Teal” phytotoxicity (%) (Spring Wheat “Teal”; [6]): 65%

CC#Cc1cc(C)c(C2C(=O)CC(Cc3ccn(C)n3)C2=O)c(C)c1 (stereo not shown) [Compound A-19]
pest or weed control at 250 g/ha (Lolium perenne (LOLPE)): 100% | pest or weed control at 250 g/ha (Avena fatua (AVEFA)): 100% | RASP Test: % of compound remaining at 0 weeks ([2]; 0 weeks): 80% | RASP Test: % of compound remaining at 1 week ([2]; 1 week incubation at 20°C): 79% | RASP Test: % of compound remaining at 4 weeks ([2]; 4 weeks incubation at 20°C): 80% | Spring Barley “Harrington” phytotoxicity (%) [1, 4]: 38% | Spring Barley “Harrington” phytotoxicity (%) [1, 5]: 98% | Spring Barley “Harrington” phytotoxicity (%) [1, 6]: 94% | Spring Barley “Harrington” phytotoxicity (%) [3]: 3% | Spring Wheat “Teal” phytotoxicity (%) (Spring Wheat “Teal”; 15 g/ha, cloquintocet-mexyl 50 g/ha): 23% | Spring Wheat “Teal” phytotoxicity (%) (Spring Wheat “Teal”; [4]): 73% | Spring Wheat “Teal” phytotoxicity (%) (Spring Wheat “Teal”; [5]): 90% | Spring Wheat “Teal” phytotoxicity (%) (Spring Wheat “Teal”; [6]): 83%
